Results published in patent US11278682B2, “Device and method for aerosolized delivery of substance to a natural orifice of the body” (SIPNOSE LTD., priority 2014, dated 2022).
Values joined by “and” are separate entries in the source; they are usually repeats but may differ in a detail not shown here. Equal values may be shown once.

How the values were obtained:
[1] = system: Pentylenetetrazol (PTZ)-induced epileptic seizures in rats; assay: Brain concentration of Midazolam vs convulsion score in PTZ-induced seizures; format: in vivo, rat; settings: 60 minutes after administration
Method: Epileptic seizures were induced in rats by administration of Pentylenetetrazol (PTZ) and the severity of the seizures was measured 60 minutes after administration of Mizadolam. Doses of Mizadolam varied from zero to 6 mg/kg with SipNose nasal delivery device and with an I/V administration. Brain concentrations of Midazolam were measured and a correlation between brain concentration and convulsions score is shown in FIG. 81. Brain concentrations varied from zero to 130 ng/gr brain tissue. Black squares represent the I/V administrated animals and black dots represent the SipNose administrated animals.

[2] = system: patients; assay: Midazolam pre-medication sedation (BIS EEG monitoring), 1.4 mg, SipNose vs MAD Nasal atomizer; format: in vivo, human; settings: for Positive Sedation / Adverse events / Level of minimum BIS / Onset time: individual patients 1 and 2
Method: Comparison with MAD (using a 1 mg/ml solution): For a pre-medication procedure with MAD atomizer, in order to achieve the desired dose of 1.4 mg Midazolam, the delivery device was delivered to one nostril and an aliquot of Midazolam within a volume of 1.4 ml was delivered. For SipNose device delivery the Midazolam was delivered in 2 separate aliquots of 0.7 ml, one to each nostril.
In order to determine the efficacy of anesthetization a BIS EEG monitoring was used, where the BIS values for brain activity are calculated from the EEG activity. Awake, unsedated individuals typically have BIS values ≥97. Mildly sedated individuals typically have BIS values in the 80's, moderately sedated individuals typically have BIS values in the 70's, while fully sedated individuals typically have BIS values below about 70; BIS values between about 45 and about 60 are commonly used for general anesthesia during the maintenance phase of an operation.
Two comparisons were made between the commercial device and the present, SipNose, device. In the first, 3 mg of Midazolam was administered and the commercial device was a commercial nasal pump (positive displacement), in the second, 1.4 mg of Midazolam was administered and the commercial device was a MAD applicator.
In the second comparison, the total dose of Midazolam was 1.4 mg in a total volume of carrier of 1.4 ml. For the SipNose device, it was administered in two aliquots of 0.7 ml, whereas it was administered in one aliquot for the commercial MAD Nasal atomizer from Wolfe Tory. Midozolam was administered to four patients, two with the SipNose device and two with the commercial MAD device.

[3] = Dose-response of Midazolam brain concentration; format: in vivo, rat; settings: rats; doses about 0.6 to about 6 mg/kg; brain concentration 60 minutes after administration
Method: In this example, doses of Midazolam between about 0.6 mg/kg and about 6 mg/kg were administered to rats and the concentration of Midazolam in the brain was measured 60 minutes after administration.

[4] = system: patients; assay: Midazolam as pre-anesthetic drug: effectiveness, safety and user compliance, SipNose vs commercial nasal pump; format: in vivo, human; settings: for BIS value (minimum after administration): 8 patients
Method: Midazolam was administered as a pre-anesthetic drug as a part of premeditation to subjects that needed to be anesthetized prior to the beginning a surgical procedure. Administration of the pre-anesthetic drug was done intranasally instead of the routine PO/IM (oral/intramuscular) route used by the anesthesiologist from the hospital.
The intranasal administration was given by one of the following medical devices: a SipNose nasal device (FIG. 93A) or a commercial nasal pump (FIG. 93B). A single dose of 1×600 microliter (μl) was given with the SipNose device, while 6×100 μl doses were given with a commercial nasal pump. An exemplary administration for the SipNose device is shown in FIG. 94A, while an exemplary administration for the commercial nasal pump is shown in FIG. 94B.
Eight low-risk patients (American Society of Anesthesiology physical status classification I or II) patients were included in each group. Clinical status of the patients, standard continuous monitoring of vital signs, and continuous bispectral index (BIS) monitoring was ongoing 5 minutes before intranasal administration and 30 minutes after.
The objective data consisted in minimum BIS value obtained after administration and time until minimum BIS. The subjective data consisted in physician feedback, swallowing of the drug appreciated by patient, sleeping score appreciated by physician.
Sedation Score was evaluated by physicians as a behavior tool to determine effectiveness of the dose that was given in each of the nasal administrations. Scoring was done according to the following criteria: 1=not Sleepy (not effective); 2=Sleepy/Calm (intermediate effect); 3=Sleeping (drug was effective).
Patients were asked to score if they felt the drug in their throat and/or felt a bitter taste in the throat after the administration of the drug.
The bitterness and swallowing were graded according to the following scale: 1=No swallowing/No bitter taste; 5=A meaningful amount was swallowed/Strong bitter taste.
The repeated administrations with the nasal pump were given with 30 s intervals between them to allow the drug to be absorbed in the nasal cavity before another dose was given.
The anesthesiologist in charge of the patients was asked to rate the overall experience with intranasal administration of midazolam. (1=very good; 5=Not satisfactory).

[5] = system: patient suffering from epileptic seizures (SE); assay: Anti-epileptic treatment of status epilepticus with Midazolam, EEG recordings (case study); format: in vivo, human; settings: 2 mg Midazolam via SipNose, nasal
Method: Case study of a patient, suffering from epileptic seizures (SE) was treated with a dose of 2 mg Midazolam with sipNose delivery device to deliver Midazolam via the nasal cavity.
Administration of Midazolam was done by administrating of […] of Midazolam to each nostril in a carrier volume of 1 ml. EEG recordings were measured before (FIGS. 82A and 82B) and 3 minutes following to the nasal administration of the drug with SipNose device.

[6] = Midazolam pharmacokinetic study, plasma and brain, SipNose vs IV; settings: rats
Method: Concentration of Midazolam in the plasma and brain of rats were compared for intranasal administration via the SipNose delivery device and via IV administration. A standard drug formulation (Injectable Midazolam 5 mg/ml, Pfizer/Hospira brand) was used, with no reformulation or adaptation for nasal delivery. Two drug concentrations were used for the intranasal administration, 0.2 mg/kg (dashed line in FIGS. 91 and 92) and 0.6 mg/kg (dot-dash line in FIGS. 91 and 92), compared to the standard of care I/V administration of 0.6 mg/kg (solid line in FIGS. 91 and 92). Concentration was measured 10 times in the 12 hours of the study. For each measurement time, midazolam concentration was measured in the plasma and brain of five animals.

[7] = commercial MAD Nasal atomizer, 1.4 mg

Cc1ncc2n1-c1ccc(Cl)cc1C(c1ccccc1F)=NC2 [Midazolam]
Midazolam brain concentration at which Racine severity reaches zero ([1]; IV administration): about 130 ng/gm | Midazolam brain concentration up to which Racine severity remained at about 1 ([1]; IV administration): about 25 ng/gm | Midazolam brain concentration needed to completely prevent seizures (score=0) ([1]; SipNose administration): ~11 ng/gm | sleeping score by observation ([2]; SipNose administration, 1.4 mg): 3 | Positive Sedation ([2]; SipNose device, 1.4 mg in two aliquots of 0.7 ml): Yes | Adverse events ([2]; SipNose device, 1.4 mg): No | Level of minimum BIS ([2]; SipNose device, 1.4 mg): 84 | Onset time ([2]; SipNose device, 1.4 mg): 3 min and 5 min | Positive Sedation ([2]; commercial MAD Nasal atomizer, 1.4 mg in one aliquot): Limited and No | Adverse events [2, 7]: No | Level of minimum BIS [2, 7]: 83 and 92 | Onset time [2, 7]: 20 min and 8 min | sleeping score by observation (average) ([2]; commercial device, 1.4 mg): 1.5 | dose-response curve of brain concentration [3]: essentially linear | patients with Highly Effective sedation ([4]; Commercial Nasal Pump): 12.5% | patients with Intermediate Effect of sedation ([4]; Commercial Nasal Pump): 50% | patients with sedation Not Effective ([4]; Commercial Nasal Pump): 37.5% | patients with Highly Effective sedation ([4]; SipNose): 100% | Sedation Score (1 not sleepy, 2 sleepy/calm, 3 sleeping) ([4]; SipNose group): 3 | BIS value (minimum after administration) ([4]; SipNose group, 1×600 μl): 74.50±3.196 | adverse events or safety issues ([4]; both administration procedures (SipNose and commercial nasal pump)): No adverse events or safety issues were reported | Sedation Score (1 not sleepy, 2 sleepy/calm, 3 sleeping) ([4]; commercial pump group): below 2 | BIS value (minimum after administration) ([4]; commercial pump group, 6×100 μl): 87.25±1.840 | time after administration at which brain activity (EEG) is back to normal [5]: 3 min | pharmacokinetic pattern ([6]; 0.6 mg/kg intranasal via SipNose): very similar to that of standard of care (I/V) administration | absorption into blood and brain ([6]; intranasal via SipNose (0.2 and 0.6 mg/kg) vs I/V 0.6 mg/kg): comparable to that seen for I/V administration
